“And” between values parts separate entries of the source, which are not always exact repeats. Identical values can stand only once. Like-named read-outs stand apart in the source and are kept apart here.
Assays:
porcine sclera [1] = assay: Thermal shrinkage temperature analysis of porcine scleral strips; details: for T50 (temperature at 50% of maximal shrinkage) / T50 Δ (change in 50% shrinkage temperature compared to control) / Ti (temperature at 1% absolute shrinkage): pH 7.4, 37° C., 96 hrs
From the text: (§1) Thermal shrinkage temperature or denaturation temperature (Ts) is a technique that has been used for decades in studying collagen cross-linking. As collagen fibers are progressively heated, a threshold temperature is reached at which point disruption of hydrogen bonding in the collagen molecule triple helix occurs, resulting in unwinding of the triple helices. The denaturation of tertiary protein structure results in a rapid shrinkage of the tissue of up to 80%. This phenomenon can be expressed in various ways including temperature of onset of tissue shrinkage, temperature at maximal tissue shrinkage, and temperature at 50% of maximal tissue shrinkage, for example. In addition, differential scanning calorimetry (DSC) is related to thermal shrinkage temperature analysis and is widely used to evaluate biomaterial cross-linking. Thermal shrinkage temperature is essentially a simplified version of DSC and can be used effectively to screen the cross-linking efficacy of compounds. For the purposes of this study, the onset of shrinkage is considered the Ts and the temperature at which 50% of maximal shrinkage has occurred is T50. Graphs depicting the relationship between degree of shrinkage and temperature indicate differences in degree of cross-linking between groups. Thus, stabilization of collagen fiber structures through non-enzymatic cross-linking increases Ts and T50.
(§2) This system can perform multiple Ts assays in succession, allowing rapid screening of a number of potential cross-linking agents and conditions. […] Inlet and outlet fittings allow for constant circulation of heated water which is modulated by a digitally controlled water bath equipped with a water pump. The entire box is placed on a digital photo scanner connected to a Windows based computer. Beginning at 50° C. the temperature is raised at a rate of 1° C./min and serial scans are taken at every degree increase in temperature up to 80° C. […] As the tissue shrinks, the images are captured by the scanner. The image files are later analyzed for 2-dimensional area using NIH Image J software and % shrinkage calculations are made using Microsoft Excel for graphing purposes. This method obviates the need for removal of tissue pieces from the water bath with manual micrometer measurements as described by the UVR group (Spoerl, E., et al., 2004).
Using this simple, reproducible assay enables the screening of a number of compounds for cross-linking efficacy. This is first performed using porcine eyes because of their low cost. Follow up studies can be performed using human eyes. Porcine eyes are obtained within 6 hrs of sacrifice (Hatfield Meat Packing, Inc., Hatfield Pa.). Eyes showing clear corneas and intact epithelia are chosen for study. […] Each strip is then cross-linked using a nitro agent. […] Opthalmol. 1999; 117:166-169) for 24-96 hrs. Following incubation, the samples are evaluated for degree of cross-linking using the Ts assay as described above.
From the data, Ts curves are generated for each compound and condition studied. Each data point is the average of 3 independent samples.

porcine cornea [2] = assay: Thermal shrinkage temperature analysis of porcine corneal strips
From the text: as §1, §2
Using this simple, reproducible assay enables the screening of a number of compounds for cross-linking efficacy. This is first performed using porcine eyes because of their low cost. Follow up studies can be performed using human eyes. Porcine eyes are obtained within 6 hrs of sacrifice (Hatfield Meat Packing, Inc., Hatfield Pa.). Eyes showing clear corneas and intact epithelia are chosen for study. […] Each strip is then cross-linked using a nitro agent. The incubation solution is 20% Dextran (T500) [to prevent tissue swelling] in 0.2 M NaH2PO4/Na2HPO4 (pH 7.4) with various concentrations of nitro agent (i.e. 1, 10, and 100 mM). […] The samples are then placed in 2 mL microcentrifuge tubes with 1 mL of incubation solution and reacted in a 34° C. water bath (simulating corneal temperature—Girardin, F., et al., “Relationship between corneal temperature and finger temperature,” Arch. Opthalmol. 1999; 117:166-169) for 24-96 hrs. Following incubation, the samples are evaluated for degree of cross-linking using the Ts assay as described above.

porcine cornea [3] = assay: Gross stiffness of porcine corneal strips handled with a forceps; details: 100 mM, pH 7.4, 37° C., 48 hrs
Procedure: Fresh porcine corneal strips and corneoscleral complexes obtained within 6 hrs of sacrifice and incubated at 37° C. in buffered solutions (pH 7.4) containing 20% Dextran (T500) and either 100 mM NaNO2 or 100 mM of one each of the specified β-nitro alcohols
(§3) These images were taken from tissues cross-linked with nitrite and the β-nitro alcohols 2-nitroethanol, 2-nitro-1-propanol, and […], for 48 hrs. […] Fresh porcine corneal strips and corneoscleral complexes were obtained within 6 hrs of sacrifice and incubated at 37° C. in buffered solutions (pH 7.4) containing 20% Dextran (T500) and either 100 mM NaNO2 or 100 mM of one each of the β-nitro alcohols. After 48 hrs, the following images were obtained. […] FIGS. 13 (B and D)

porcine cornea [4] = assay: Yellowing of cross-linked porcine cornea; details: 100 mM concentration
Procedure: as §3
As such, the effects on corneal light transmission induced by cross-linking with β-nitro alcohols was evaluated using a method adopted from Dillon et al 2004.

porcine sclera [5] = assay: Yellowing of cross-linked scleral tissue
Procedure: Additional β-nitro alcohols related to 2-nitroethanol were also tested for scleral cross-linking efficacy. In addition to 2-nitroethanol, there was 2-nitro-1-propanol, 3-nitro-2-pentanol, and 2-nitrophenol. […] This effect was not blocked by addition of equimolar urea (Table 5).

[6] = tested on: primary bovine corneal endothelial cells; details: for Cytotoxic threshold (using trypan blue): 48 hrs exposure
[7] = tested on: bovine corneal endothelial cells; details: 48 hrs exposure

O=[N+]([O-])CCO [2-nitroethanol]
T50 (temperature at 50% of maximal shrinkage) (porcine sclera [1]; 1 mM reagent): 65.7 °C | T50 Δ (change in 50% shrinkage temperature compared to control) (porcine sclera [1]; 1 mM reagent): 0.4 °C | Ti (temperature at 1% absolute shrinkage) (porcine sclera [1]; 1 mM reagent): 62.9 °C | Ts shift (porcine sclera [1]; 1 mM serially applied over 10 days): 2-3 °C | shift in Ts (in words) (porcine sclera [1]; 1 mM, 4 days (96 hrs) without replacing the incubation solution): did not produce a shift in Ts | T50 shift (porcine sclera [1]; 1 mM, incubation solution exchanged daily, 6 days): 1.3 °C | T50 shift (porcine sclera [1]; 1 mM, incubation solution exchanged daily, 10 days): 3.2 °C | T50 shift (porcine sclera [1]; 1 mM, incubation solution exchanged daily, 14 days): 5.4 °C and 5.6 °C | T50 (temperature at 50% of maximal shrinkage) (porcine sclera [1]; 10 mM reagent): 69.8 °C | T50 Δ (change in 50% shrinkage temperature compared to control) (porcine sclera [1]; 10 mM reagent): 4.5 °C | Ti (temperature at 1% absolute shrinkage) (porcine sclera [1]; 10 mM reagent): 67.2 °C | maximal increase of Ts (porcine sclera [1]; 100 mM): 8 °C | T50 (temperature at 50% of maximal shrinkage) (porcine sclera [1]; 100 mM reagent): 73.7 °C | Ti (temperature at 1% absolute shrinkage) (porcine sclera [1]; 100 mM reagent): 70.7 °C | T50 shift (porcine sclera [1]; 100 mM, 24 hrs of incubation): 1.4 °C | T50 shift (porcine sclera [1]; 100 mM, 48 hrs of incubation): 2.4 °C | T50 shift (porcine sclera [1]; 100 mM, 72 hrs of incubation): 5.3 °C | blocking of the cross-linking effect by equimolar urea (porcine sclera [1]; equimolar urea (nitrous acid trapping agent)): not blocked | Ts onset shift (porcine cornea [2]; 1 mM serially applied over 6 days): 1-2 °C | shift in Ts (in words) (porcine cornea [2]; 1 mM, 4 days without replacing the incubation solution): did not produce a shift in Ts | Ts onset shift (porcine cornea [2]; 10 mM): 5 °C | Ts onset shift (porcine cornea [2]; 100 mM): 8 °C | stiffness change when handled with a forceps (porcine cornea [3]): dramatic stiffness change | yellowing effect (porcine cornea [4]): significant yellowing effect | propensity to induce tissue yellowing (porcine sclera [5]): greatest propensity to induce tissue yellowing | Cytotoxic threshold (using trypan blue) ([6]; 0.1 mM): − | Cytotoxic threshold (using trypan blue) ([6]; 0.5 mM): − | Cytotoxic threshold (using trypan blue) ([6]; 0.75 mM): − | Cytotoxic threshold (using trypan blue) ([6]; 1 mM): − | Cytotoxic threshold (using trypan blue) ([6]; 2 mM): − | Cytotoxic threshold (using trypan blue) ([6]; 3 mM): + | Cytotoxic threshold (using trypan blue) ([6]; 5 mM): + | Cytotoxic threshold (using trypan blue) ([6]; 7 mM): + | Cytotoxic threshold (using trypan blue) ([6]; 10 mM): + | tolerable level ([6]; bovine corneal endothelial cells): 0.0273% | highest tolerated level ([6]; bovine corneal endothelial cells, 48 hrs): 2 mM and 3 mM | Apoptosis (Annexin V) staining ([7]; 0.1 mM): − | Apoptosis (Annexin V) staining ([7]; 0.5 mM): − | Apoptosis (Annexin V) staining ([7]; 0.75 mM): − | Apoptosis (Annexin V) staining ([7]; 1 mM): − | Apoptosis (Annexin V) staining ([7]; 2 mM): − | Apoptosis (Annexin V) staining ([7]; 3 mM): +
